# Data reported in patent US9957274B2, “Indane inhibitors of EED and methods of their use” (AbbVie Inc., priority 2016, dated 2018).
# Where two headings read alike, the source gives them in different places.
# Assays:
# [1] = tested on: H3K27me3 in OCILY19 cells; test: H3K27me3 AlphaLISA assay in OCILY19 cells; format: cell-based; details: Homo sapiens, OCI-LY19, 144 h, 6 days with compound, read-out: OCILY-19 IC50
# Description: 5,000 cells were plated into each well of 96-well Corning CellBing cell culture plates and incubated overnight at 37° C. in a humidified CO2 incubator. […] The cell culture plates were then incubated for 6 more days. H3K27me3 AlphaLISA assay was performed on the cell culture samples by using AlphaLISAR® H3K27me3 Cellular Detection Kit (PerkinElmer) and 96-well white half-area plates (PerkinElmer).
# EED = EED (Homo sapiens, UniProt O75530); test: EED TR-FRET Binding Assay (modified LanthaScreen competition assay)
# EED, sequence (O75530 whole entry): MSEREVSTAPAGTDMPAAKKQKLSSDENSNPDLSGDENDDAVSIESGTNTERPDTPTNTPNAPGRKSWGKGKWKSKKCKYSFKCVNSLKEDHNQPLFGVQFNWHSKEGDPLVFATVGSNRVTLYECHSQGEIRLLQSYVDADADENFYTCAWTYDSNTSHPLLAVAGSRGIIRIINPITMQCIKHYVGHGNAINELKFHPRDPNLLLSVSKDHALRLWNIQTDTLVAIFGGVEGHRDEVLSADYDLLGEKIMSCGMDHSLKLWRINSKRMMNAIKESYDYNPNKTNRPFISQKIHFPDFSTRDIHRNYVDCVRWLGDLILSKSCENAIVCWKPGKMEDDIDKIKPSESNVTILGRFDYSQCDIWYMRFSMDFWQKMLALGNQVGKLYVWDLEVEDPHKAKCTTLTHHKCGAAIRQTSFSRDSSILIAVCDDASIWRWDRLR
# In short: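 Competition binding in a modified LanthaScreen format, in 20 mM Tris-HCl pH 7.5, 200 mM NaCl, 0.01% Tween-20, 10 uM DTT and 0.05% BSA. Reactions ran 1 hour at 25° C before TR-FRET detection.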
# Pfeiffer cells = test: CTG cell viability assay (CellTiter-Glo); format: cell-based; details: Homo sapiens, 240 h
# Description: 1,000 cells were plated into each well of 96-well Corning CellBing cell culture plates and incubated overnight at 37° C. in a humidified CO2 incubator. […] The cell culture plates were then incubated for 10 more days. CTG cell viability assay was performed on the cell culture samples by using CellTiter-Glo® Luminescent Cell Viability Assay Kit (Promega).
# [2] = Pfeiffer cells, 10 days with compound, CellTiter-Glo, read-out: Cell Proliferation IC50
Structure (SMILES),IC50 [1],IC50 (EED),IC50 (Pfeiffer cells; [2]),"IC50 (Pfeiffer cells; Pfeiffer, read-out: Cell Proliferation IC50 (uM))"
"CN(C)[C@H]1CN([C@@H]2C[C@H](F)c3cccc(F)c32)C[C@@H]1c1ccc(S(C)(=O)=O)cc1 (mixture of isomers) [Example 31, rac-(3R,4S)-1-[(1R,3S)-3,7-difluoro-2,3-dihydro-1H-inden-1-yl]-4-[4-(methanesulfonyl)phenyl]-N,N-dimethylpyrrolidin-3-amine]",3450 nM,8.19 nM,0.754 µM,–
"CN(C)[C@H]1CN([C@H]2C[C@H](F)c3cccc(F)c32)C[C@@H]1c1ccc(S(C)(=O)=O)cc1 (mixture of isomers) [Example 32, rac-(3R,4S)-1-[(1S,3S)-3,7-difluoro-2,3-dihydro-1H-inden-1-yl]-4-[4-(methanesulfonyl)phenyl]-N,N-dimethylpyrrolidin-3-amine]",2110 nM,4.54 nM,2.81 µM,–
"CN(C)[C@H]1CN(C2CCc3cccc(F)c32)C[C@@H]1c1ccc(C(=O)N2CC[C@H](O)C2)cc1 (mixture of isomers) [Example 40, rac-{4-[(3S,4R)-4-(dimethylamino)-1-(7-fluoro-2,3-dihydro-1H-inden-1-yl)pyrrolidin-3-yl]phenyl}[(3S)-3-hydroxypyrrolidin-1-yl]methanone]",1080 nM,4.62 nM,0.941 µM,–
"CN(C)[C@H]1CN(C2CCc3cccc(F)c32)C[C@@H]1c1ccc(S(N)(=O)=O)cc1 (mixture of isomers) [Example 8, rac-4-[(3S,4R)-4-(dimethylamino)-1-(7-fluoro-2,3-dihydro-1H-inden-1-yl)pyrrolidin-3-yl]benzene-1-sulfonamide]",637 nM,10.7 nM,1.32 µM,–
"CNC(=O)c1ccc([C@H]2CN(C3CCc4cccc(F)c43)C[C@@H]2N(C)C)cc1 (mixture of isomers) [Example 24, rac-4-[(3S,4R)-4-(dimethylamino)-1-(7-fluoro-2,3-dihydro-1H-inden-1-yl)pyrrolidin-3-yl]-N-methylbenzamide]",601 nM,20.5 nM,2.92 µM,–
"CN(C)C(=O)c1ccc([C@H]2CN(C3CCc4cccc(Cl)c43)C[C@@H]2N(C)C)cc1 (mixture of isomers) [Example 25, rac-4-[(3S,4R)-1-(7-chloro-2,3-dihydro-1H-inden-1-yl)-4-(dimethylamino)pyrrolidin-3-yl]-N,N-dimethylbenzamide]",1060 nM,18.2 nM,2.93 µM,–
"CN(C)[C@H]1CN(C2CCc3cccc(F)c32)C[C@@H]1c1cn(C)c2cc(C(=O)N3CCN(S(C)(=O)=O)CC3)ccc12 (mixture of isomers) [Example 122, rac-{3-[(3S,4R)-4-(dimethylamino)-1-(7-fluoro-2,3-dihydro-1H-inden-1-yl)pyrrolidin-3-yl]-1-methyl-1H-indol-6-yl}[4-(methanesulfonyl)piperazin-1-yl]methanone]",–,2.88 nM,0.556 µM,–
"CC(=O)N1CCN(C(=O)c2ccc3c([C@H]4CN(C5CCc6cccc(F)c65)C[C@@H]4N(C)C)cn(C)c3c2)CC1 (mixture of isomers) [Example 123, rac-1-(4-{3-[(3S,4R)-4-(dimethylamino)-1-(7-fluoro-2,3-dihydro-1H-inden-1-yl)pyrrolidin-3-yl]-1-methyl-1H-indole-6-carbonyl}piperazin-1-yl)ethan-1-one]",–,3.53 nM,1.53 µM,–
"CN(C)[C@H]1CN(C2CCc3cccc(F)c32)C[C@@H]1C1CCN(c2ccccc2)CC1 (mixture of isomers) [Example 146, rac-(3R,4S)-1-(7-fluoro-2,3-dihydro-1H-inden-1-yl)-N,N-dimethyl-4-(1-phenylpiperidin-4-yl)pyrrolidin-3-amine]",–,4.58 nM,2.9 µM,–
"CN(C)C(=O)CN1CCN(c2ccc([C@@H]3CN(C4CCc5cccc(F)c54)C[C@H]3N(C)C)cn2)CC1 (mixture of isomers) [Example 147, rac-2-(4-{5-[(3R,4S)-4-(dimethylamino)-1-(7-fluoro-2,3-dihydro-1H-inden-1-yl)pyrrolidin-3-yl]pyridin-2-yl}piperazin-1-yl)-N,N-dimethylacetamide]",–,3.84 nM,0.535 µM,–
"CC(=O)N1CCN(c2ccc([C@H]3CN([C@@H]4CCc5cccc(F)c54)C[C@@H]3N(C)C)cc2)CC1 [Example 46, 1-[4-(4-{(3S,4R)-4-(dimethylamino)-1-[(1R)-7-fluoro-2,3-dihydro-1H-inden-1-yl]pyrrolidin-3-yl}phenyl)piperazin-1-yl]ethan-1-one]",–,3.36 nM,–,1.01 µM
"CN(C)[C@H]1CN(C2CCc3cccc(F)c32)C[C@@H]1c1cn(C)c2ccccc12 (stereo partly drawn) [Example 76, (3R,4S)-1-(7-fluoro-2,3-dihydro-1H-inden-1-yl)-N,N-dimethyl-4-(1-methyl-1H-indol-3-yl)pyrrolidin-3-amine]",1340 nM,–,1.9 µM,–

# Now from value to molecule, other results behind:
IC50 [1],IC50 (EED),Structure (SMILES),IC50 (Pfeiffer cells; [2]),"IC50 (Pfeiffer cells; Pfeiffer, read-out: Cell Proliferation IC50 (uM))"
368 nM,1.74 nM,"CN(C)C(=O)c1cccc2c([C@H]3CN(C4CCc5cccc(F)c54)C[C@@H]3N(C)C)cn(C)c12 (mixture of isomers) [Example 101, rac-3-[(3S,4R)-4-(dimethylamino)-1-(7-fluoro-2,3-dihydro-1H-inden-1-yl)pyrrolidin-3-yl]-N,N,1-trimethyl-1H-indole-7-carboxamide]",–,–
–,2.59 nM,"CN(C)C1CN(C2CCc3cccc(F)c32)CC1c1cn(C)c2cc(C(=O)N3CCC(O)C3)ccc12 (racemic) [Example 111, rac-{3-[(3S,4R)-4-(dimethylamino)-1-(7-fluoro-2,3-dihydro-1H-inden-1-yl)pyrrolidin-3-yl]-1-methyl-1H-indol-6-yl}[(35)-3-hydroxypyrrolidin-1-yl]methanone]",0.171 µM,–
–,1.73 nM,"CN(C)[C@H]1CN(C2CCc3cccc(F)c32)C[C@@H]1c1cn(C)c2c(C(=O)NC3CCS(=O)(=O)C3)cccc12 (mixture of isomers) [Example 115, rac-3-[(3S,4R)-4-(dimethylamino)-1-(7-fluoro-2,3-dihydro-1H-inden-1-yl)pyrrolidin-3-yl]-N-(1,1-dioxo-1lambda~6~-thiolan-3-yl)-1-methyl-1H-indole-7-carboxamide]",0.224 µM,–
–,1.26 nM,"CN(C)[C@H]1CN(C2CCc3cccc(F)c32)C[C@@H]1c1cn(C)c2c(C(=O)N3CCC[C@H]3C(N)=O)cccc12 (mixture of isomers) [Example 117, rac-1-{3-[(3S,4R)-4-(dimethylamino)-1-(7-fluoro-2,3-dihydro-1H-inden-1-yl)pyrrolidin-3-yl]-1-methyl-1H-indole-7-carbonyl}-L-prolinamide]",0.111 µM,–
–,1.75 nM,"CN(C)C(=O)N1CCN(C(=O)c2cccc3c([C@H]4CN(C5CCc6cccc(F)c65)C[C@@H]4N(C)C)cn(C)c23)CC1 (mixture of isomers) [Example 127, rac-4-{3-[(3S,4R)-4-(dimethylamino)-1-(7-fluoro-2,3-dihydro-1H-inden-1-yl)pyrrolidin-3-yl]-1-methyl-1H-indole-7-carbonyl}-N,N-dimethylpiperazine-1-carboxamide]",0.335 µM,–
–,2.5 nM,"CN(C)[C@H]1CN(C2CCc3cccc(F)c32)C[C@@H]1c1cn(C)c2c(C(=O)N3CCN4CCNC(=O)C4C3)cccc12 (mixture of isomers) [Example 134, rac-8-{3-[(3S,4R)-4-(dimethylamino)-1-(7-fluoro-2,3-dihydro-1H-inden-1-yl)pyrrolidin-3-yl]-1-methyl-1H-indole-7-carbonyl}hexahydro-2H-pyrazino[1,2-a]pyrazin-1(6H)-one]",0.833 µM,–
–,1.91 nM,"CN(C)[C@H]1CN(C2CCc3cccc(F)c32)C[C@@H]1c1cn(C)c2c(C(=O)N3CCN(c4cccnn4)CC3)cccc12 (mixture of isomers) [Example 137, rac-{3-[(3S,4R)-4-(dimethylamino)-1-(7-fluoro-2,3-dihydro-1H-inden-1-yl)pyrrolidin-3-yl]-1-methyl-1H-indol-7-yl}[4-(pyridazin-3-yl)piperazin-1-yl]methanone]",0.299 µM,–
–,2.4 nM,"CN(C)[C@@H]1CN(C2CCc3cccc(F)c32)C[C@H]1c1ccc(-c2cnn(CC(=O)N3CC(O)C3)c2)nc1 (mixture of isomers) [Example 150, rac-2-(4-{5-[(3R,4S)-4-(dimethylamino)-1-(7-fluoro-2,3-dihydro-1H-inden-1-yl)pyrrolidin-3-yl]pyridin-2-yl}-1H-pyrazol-1-yl)-1-(3-hydroxyazetidin-1-yl)ethan-1-one]",0.95 µM,–
–,2.24 nM,"CN(C)[C@@H]1CN(C2CCc3cccc(F)c32)C[C@H]1c1ccc(N2CCN(C(=O)C3COC3)CC2)nc1 (mixture of isomers) [Example 151, rac-(4-{5-[(3R,4S)-4-(dimethylamino)-1-(7-fluoro-2,3-dihydro-1H-inden-1-yl)pyrrolidin-3-yl]pyridin-2-yl}piperazin-1-yl)(oxetan-3-yl)methanone]",0.559 µM,–
–,2.01 nM,"CN(C)[C@@H]1CN(C2CCc3cccc(F)c32)C[C@H]1c1ccc(-c2cnn(CC(=O)N3CC(F)C3)c2)nc1 (mixture of isomers) [Example 153, rac-2-(4-{5-[(3R,4S)-4-(dimethylamino)-1-(7-fluoro-2,3-dihydro-1H-inden-1-yl)pyrrolidin-3-yl]pyridin-2-yl}-1H-pyrazol-1-yl)-1-(3-fluoroazetidin-1-yl)ethan-1-one]",0.419 µM,–
–,2.45 nM,"CN(C)[C@H]1CN(C2CCc3cccc(F)c32)C[C@@H]1c1cn(C)c2c(C(=O)O)cccc12 (stereo partly drawn) [Example 79, 3-[(3S,4R)-4-(dimethylamino)-1-(7-fluoro-2,3-dihydro-1H-inden-1-yl)pyrrolidin-3-yl]-1-methyl-1H-indole-7-carboxylic acid]",1.02 µM,–
